Measured values taken from ChEMBL document CHEMBL5143565, “Toll-like receptor 7 and 8 imidazoquinoline-based agonist/antagonist pairs” (Bioorg Med Chem Lett, 2022).

Legend:
Toll-like receptor 7 = target: T1, Toll-like receptor 7 (Homo sapiens, UniProt Q9NYK1); test: Agonist activity at TLR7 in human HEK-SEAP reporter cell assessed as NF-kappaB activation; assay type: cell-based
T1 sequence (Q9NYK1 whole entry): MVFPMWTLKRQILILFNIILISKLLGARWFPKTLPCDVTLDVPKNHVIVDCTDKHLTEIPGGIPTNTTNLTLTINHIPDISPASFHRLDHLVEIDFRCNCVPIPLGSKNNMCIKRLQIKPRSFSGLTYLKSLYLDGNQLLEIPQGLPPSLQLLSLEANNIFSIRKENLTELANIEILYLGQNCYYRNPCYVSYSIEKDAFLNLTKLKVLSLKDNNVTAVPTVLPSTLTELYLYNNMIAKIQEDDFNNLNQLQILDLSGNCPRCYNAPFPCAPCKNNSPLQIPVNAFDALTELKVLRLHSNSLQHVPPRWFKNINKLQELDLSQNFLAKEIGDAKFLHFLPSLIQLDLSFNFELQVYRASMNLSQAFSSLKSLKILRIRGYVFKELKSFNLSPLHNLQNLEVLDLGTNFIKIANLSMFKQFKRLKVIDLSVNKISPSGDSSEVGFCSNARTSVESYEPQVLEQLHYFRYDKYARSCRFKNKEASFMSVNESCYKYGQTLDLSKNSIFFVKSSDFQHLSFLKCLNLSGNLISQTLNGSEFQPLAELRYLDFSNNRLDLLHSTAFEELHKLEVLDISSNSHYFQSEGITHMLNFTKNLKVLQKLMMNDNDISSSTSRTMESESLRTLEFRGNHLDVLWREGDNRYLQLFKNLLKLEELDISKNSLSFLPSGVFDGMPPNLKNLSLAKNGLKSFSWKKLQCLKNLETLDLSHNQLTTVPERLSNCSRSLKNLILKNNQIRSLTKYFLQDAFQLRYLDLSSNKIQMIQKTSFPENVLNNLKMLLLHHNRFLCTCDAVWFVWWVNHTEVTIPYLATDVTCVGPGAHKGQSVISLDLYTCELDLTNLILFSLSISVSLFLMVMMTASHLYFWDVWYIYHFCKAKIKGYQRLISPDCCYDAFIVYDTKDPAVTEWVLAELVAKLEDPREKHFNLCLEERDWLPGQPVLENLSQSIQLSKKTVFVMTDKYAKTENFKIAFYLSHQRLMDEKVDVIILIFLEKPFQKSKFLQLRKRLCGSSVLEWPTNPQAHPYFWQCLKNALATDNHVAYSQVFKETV

Toll-like receptor 8 = target: T2, Toll-like receptor 8 (Homo sapiens, UniProt Q9NR97); test: Agonist activity at TLR8 in human HEK-SEAP reporter cell assessed as NF-kappaB activation; assay type: cell-based
T2 sequence (Q9NR97 whole entry): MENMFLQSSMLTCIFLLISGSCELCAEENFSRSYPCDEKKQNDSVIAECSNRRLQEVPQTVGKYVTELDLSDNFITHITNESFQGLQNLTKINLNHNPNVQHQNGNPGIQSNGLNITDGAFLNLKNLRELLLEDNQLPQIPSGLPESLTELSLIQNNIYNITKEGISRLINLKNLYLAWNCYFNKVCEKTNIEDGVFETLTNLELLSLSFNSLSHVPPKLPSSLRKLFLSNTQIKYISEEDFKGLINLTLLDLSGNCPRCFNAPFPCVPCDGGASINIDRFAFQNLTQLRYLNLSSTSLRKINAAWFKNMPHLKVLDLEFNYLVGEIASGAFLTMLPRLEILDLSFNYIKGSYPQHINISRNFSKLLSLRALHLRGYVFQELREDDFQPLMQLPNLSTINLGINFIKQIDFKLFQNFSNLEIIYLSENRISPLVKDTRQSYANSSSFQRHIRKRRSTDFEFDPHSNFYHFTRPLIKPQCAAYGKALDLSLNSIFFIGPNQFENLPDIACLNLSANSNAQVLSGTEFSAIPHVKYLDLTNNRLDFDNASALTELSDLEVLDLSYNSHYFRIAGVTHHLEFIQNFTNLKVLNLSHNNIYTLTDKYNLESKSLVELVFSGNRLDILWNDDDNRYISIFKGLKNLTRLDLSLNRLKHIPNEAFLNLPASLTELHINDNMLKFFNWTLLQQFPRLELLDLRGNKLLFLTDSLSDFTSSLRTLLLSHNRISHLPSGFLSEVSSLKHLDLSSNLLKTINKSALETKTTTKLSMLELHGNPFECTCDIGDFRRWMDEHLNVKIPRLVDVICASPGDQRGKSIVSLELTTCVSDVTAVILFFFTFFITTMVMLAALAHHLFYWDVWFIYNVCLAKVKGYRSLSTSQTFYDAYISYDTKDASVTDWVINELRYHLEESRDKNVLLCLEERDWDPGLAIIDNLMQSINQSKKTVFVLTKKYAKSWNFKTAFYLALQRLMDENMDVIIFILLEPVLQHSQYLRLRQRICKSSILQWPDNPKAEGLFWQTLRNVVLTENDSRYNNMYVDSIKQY

| EC50 (Toll-like receptor 7) [µM] | EC50 (Toll-like receptor 8) [µM] | SMILES |
| --- | --- | --- |
| 0.21 |  | CC(C)Cc1nc2c(N)nc3ccccc3c2n1Cc1ccc(CN)cc1 |
| 13.2 |  | COC(=O)c1ccc2c(c1)nc(N)c1nc(CC3CC3)n(CC(C)O)c12 (centres undefined) |
| 0.99 |  | CC(O)Cn1c(CC2CC2)nc2c(N)nc3ccccc3c21 (centres undefined) |
|  | 27 | CC(C)Cc1nc2c(N)nc3ccccc3c2n1CC(C)O (centres undefined) |
